Results published in patent US9175283B2, “Use polysaccharides for promotion of enzymatic activity” (Genzyme Corporation, priority 2006, dated 2015).

System: sialidase, β-galactosidase, and β-hexosaminidase
Assay: Promotion of Target Enzyme activity: oligosaccharide modification of column-bound GCR substrate, FACE assay
Assay type: biochemical
Conditions: pH 5.7; for % Modification (FACE Assay): additive at 10%, sialidase 210, β-galactosidase 33, β-hexosaminidase 2500 U/L sv, approx. 24 hours, room temperature; for Promotion of enzymatic activity of the Target Enzymes versus no additive (in words): additive concentrations of Table 9
Excerpt: The FACE assay is a preferred method of monitoring the enzymatic activity of the oligosaccharide/polysaccharide enzymes (such as the Target Enzymes in certain Examples herein) by determining the extent of modification of a substrate (including, but not limited to, a protein, glycoprotein or oligosaccharide) of a Target Enzyme(s). Using a FACE assay, a higher FACE number is indicative of a greater degree of modification and a greater degree of Target Enzyme(s) activity. The FACE assays are known in the art.
In the Examples herein, when the Target Enzymes were sialidase, β-galactosidase, and β-hexosaminidase, a FACE assay was used to determine the percentage of modified oligosaccharide species in the GCR substrate. Specifically, GCR was treated with N-glycanase (approximately 8 U of N-glycanase per 40 μg GCR) to release intact N-linked oligosaccharide chains. The released oligosaccharides were then labeled with the fluorophore: ANTS (8-aminonapthalene-1,3,6-trisulfonic acid and separated on oligosaccharide profiling gel (Glyko®/Prozyme®, San Leandro, Calif.) as per the manufacturers instructions. A dextran reference ladder standard (Glyko®)/Prozyme®, San Leandro, Calif.) was also run on the gel along with reference oligosaccharides, GlcNAc2(+Fuc)Man3 and GlcNAc2(-Fuc)Man3, Glyko®/Prozyme®, San Leandro, Calif.). Bands on the gel were then quantified by scanning the gel for fluorescence using a SE2000 imager system with fluorescence imaging software (Glyko®/Prozyme®, San Leandro, Calif.).
The ratio (%) of the fluorescent intensity of the bands representing two core structures, GlcNAc2(Fuc)Man3 and GlcNAc2Man3 (core structures), to the total intensity of bands with mobility ≦GlcNac2Man3 in a given lane provided the percentage of modified GCR. Since GCR acts as a substrate for the three Target Enzymes, sialidase, β-galactosidase, and β-hexosaminidase, the FACE results correlate to the activity of the Target Enzymes against GCR. For GCR, the FACE values can range from about 0 to about 100%, about 3% to about 90% and about 5% to about 85%.
HES was prepared as a 20% (w/v) stock solution by dissolving solid HES into buffer of the appropriate pH. For this Example, 100 mM sodium citrate, 5 mM calcium chloride, pH 5.7 buffer was used. The 20% […] stock solution was used to make a final concentration of 5% w/L sv HES in the Target Enzyme cocktails. […]
Target Enzyme cocktails containing three Target Enzymes were made by combining sialidase (210 U/L sv), β-galactosidase (33 U/L sv), β-hexosaminidase (2500 U/L sv), and either Hmxl (14 mL/L sv) or HES (5% w/L sv). […] The enzymatic activity of GCR is measured using standard assays (see, e.g., U.S. Pat. No. 6,451,600). […]

Structure (SMILES) | % Modification (FACE Assay) [%] | Promotion of enzymatic activity of the Target Enzymes versus no additive (in words)
CC(O)CO (stereo not shown) [Propylene glycol, propylene glycol] | 51.1 | did not show Target Enzyme promotion
OCC(O)CO [Glycerol, glycerol] | 34.2 | showed a diminution of Target Enzyme promotion
